# Data from US20050143927A1, “Method for estimating or predicting the anti-tumor activity of a compound and for estimating or predicting the tumor growth in mammals” (Pharmacia Italia S.p.A., priority 2002, published 2005).
# Test: Two-compartment PK model fitted to plasma concentration of Drug-A (Experiment-A)
# Details: for Vd: male, athymic nude, mouse, iv; for Vd / A (PK macro-constant) / Alpha (PK macro-constant) / B (PK macro-constant) / Beta (PK macro-constant): plasma
# [1] = dose 20 mg/kg iv-bolus q4dx3, mean of four mice
# [2] = dose 30 mg/kg iv-bolus q4dx3, mean of four mice
# [3] = dose 40 mg/kg iv-bolus q4dx3, mean of four mice
# [4] = mouse 0, 20 mg/kg iv-bolus q4dx3
# [5] = mouse 26, 40 mg/kg iv-bolus q4dx3
# [6] = mouse 28, 30 mg/kg iv-bolus q4dx3
# [7] = mouse 31, 20 mg/kg iv-bolus q4dx3
# [8] = mouse 55, 20 mg/kg iv-bolus q4dx3
# [9] = mouse 59, 30 mg/kg iv-bolus q4dx3
# [10] = mouse 64, 30 mg/kg iv-bolus q4dx3
# [11] = mouse 69, 20 mg/kg iv-bolus q4dx3
# [12] = mouse 78, 40 mg/kg iv-bolus q4dx3
# [13] = mouse 80, 40 mg/kg iv-bolus q4dx3
# [14] = mouse 81, 40 mg/kg iv-bolus q4dx3
# [15] = mouse 88, 30 mg/kg iv-bolus q4dx3
smiles,measurement,setting,value
"CC(=O)O[C@H]1C(=O)[C@@]2(C)[C@H]([C@H](OC(=O)c3ccccc3)[C@]3(O)C[C@H](OC(=O)[C@H](O)[C@@H](NC(=O)c4ccccc4)c4ccccc4)C(C)=C1C3(C)C)[C@]1(OC(C)=O)CO[C@@H]1C[C@@H]2O [Drug-A, paclitaxel]","A (PK macro-constant), mean",[1],34294.5621
same,"B (PK macro-constant), mean",[1],3467.5180
same,"K10, mean",[1],41.0979 day⁻¹
same,"K12, mean",[1],16.4430 day⁻¹
same,"K21, mean",[1],12.4026 day⁻¹
same,"α (PK macro-constant), mean",[1],62.0545
same,"β (PK macro-constant), mean",[1],7.8890
same,"A (PK macro-constant), mean",[2],56632.6519
same,"B (PK macro-constant), mean",[2],759.8587
same,"K10, mean",[2],20.8063 day⁻¹
same,"K12, mean",[2],2.2085 day⁻¹
same,"K21, mean",[2],3.4809 day⁻¹
same,"α (PK macro-constant), mean",[2],23.2801
same,"β (PK macro-constant), mean",[2],3.2157
same,"A (PK macro-constant), mean",[3],62064.8954
same,"B (PK macro-constant), mean",[3],7999.4363
same,"K10, mean",[3],20.0530 day⁻¹
same,"K12, mean",[3],9.5544 day⁻¹
same,"K21, mean",[3],6.2425 day⁻¹
same,"α (PK macro-constant), mean",[3],32.9706
same,"β (PK macro-constant), mean",[3],2.8793
same,Vd,"20 mg/kg, Vd (apparent volume of distribution of the central compartment), mouse 0, 20 mg/kg iv-bolus q4dx3",9.51 L/kg
same,Vd,"20 mg/kg, Vd (apparent volume of distribution of the central compartment), mouse 31, 20 mg/kg iv-bolus q4dx3",1.34 L/kg
same,Vd,"20 mg/kg, Vd (apparent volume of distribution of the central compartment), mouse 55, 20 mg/kg iv-bolus q4dx3",0.719 L/kg
same,Vd,"20 mg/kg, Vd (apparent volume of distribution of the central compartment), mouse 69, 20 mg/kg iv-bolus q4dx3",0.188 L/kg
same,Vd,"20 mg/kg, Vd, mean, dose 20 mg/kg iv-bolus q4dx3, mean of four mice",2.94 L/kg
same,Vd,"30 mg/kg, Vd (apparent volume of distribution of the central compartment), mouse 28, 30 mg/kg iv-bolus q4dx3",0.528 L/kg
same,Vd,"30 mg/kg, Vd (apparent volume of distribution of the central compartment), mouse 59, 30 mg/kg iv-bolus q4dx3",0.373 L/kg
same,Vd,"30 mg/kg, Vd (apparent volume of distribution of the central compartment), mouse 64, 30 mg/kg iv-bolus q4dx3",0.745 L/kg
same,Vd,"30 mg/kg, Vd (apparent volume of distribution of the central compartment), mouse 88, 30 mg/kg iv-bolus q4dx3",0.578 L/kg
same,Vd,"30 mg/kg, Vd, mean, dose 30 mg/kg iv-bolus q4dx3, mean of four mice",0.556 L/kg
same,Vd,"40 mg/kg, Vd (apparent volume of distribution of the central compartment), mouse 26, 40 mg/kg iv-bolus q4dx3",5.07 L/kg
same,Vd,"40 mg/kg, Vd (apparent volume of distribution of the central compartment), mouse 78, 40 mg/kg iv-bolus q4dx3",1.87 L/kg
same,Vd,"40 mg/kg, Vd (apparent volume of distribution of the central compartment), mouse 80, 40 mg/kg iv-bolus q4dx3",0.234 L/kg
same,Vd,"40 mg/kg, Vd (apparent volume of distribution of the central compartment), mouse 81, 40 mg/kg iv-bolus q4dx3",0.502 L/kg
same,Vd,"40 mg/kg, Vd, mean, dose 40 mg/kg iv-bolus q4dx3, mean of four mice",1.92 L/kg
same,K10 (constant rate of the elimination process),[4],25.15 day⁻¹
same,K12 (interchange constant rate),[4],15.64 day⁻¹
same,K21 (interchange constant rate),[4],5.819 day⁻¹
same,A (PK macro-constant),[4],1975
same,Alpha (PK macro-constant),[4],43.22
same,B (PK macro-constant),[4],128.5
same,Beta (PK macro-constant),[4],3.386
same,K10 (constant rate of the elimination process),[5],14.22 day⁻¹
same,K12 (interchange constant rate),[5],1.663 day⁻¹
same,K21 (interchange constant rate),[5],3.76 day⁻¹
same,A (PK macro-constant),[5],7586
same,Alpha (PK macro-constant),[5],16.38
same,B (PK macro-constant),[5],297.8
same,Beta (PK macro-constant),[5],3.265
same,K10 (constant rate of the elimination process),[6],20.98 day⁻¹
same,K12 (interchange constant rate),[6],1.774 day⁻¹
same,K21 (interchange constant rate),[6],6.257 day⁻¹
same,A (PK macro-constant),[6],54798.379413
same,Alpha (PK macro-constant),[6],23.4
same,B (PK macro-constant),[6],2069
same,Beta (PK macro-constant),[6],5.61
same,K10 (constant rate of the elimination process),[7],22.85 day⁻¹
same,K12 (interchange constant rate),[7],3.375 day⁻¹
same,K21 (interchange constant rate),[7],5.126 day⁻¹
same,A (PK macro-constant),[7],14365.650820
same,Alpha (PK macro-constant),[7],27.02
same,B (PK macro-constant),[7],518.5
same,Beta (PK macro-constant),[7],4.336
same,K10 (constant rate of the elimination process),[8],35.24 day⁻¹
same,K12 (interchange constant rate),[8],3.303 day⁻¹
same,K21 (interchange constant rate),[8],3.947 day⁻¹
same,A (PK macro-constant),[8],27526.035314
same,Alpha (PK macro-constant),[8],38.91
same,B (PK macro-constant),[8],293.5
same,Beta (PK macro-constant),[8],3.575
same,K10 (constant rate of the elimination process),[9],18.65 day⁻¹
same,K12 (interchange constant rate),[9],4.915 day⁻¹
same,K21 (interchange constant rate),[9],0.005329 day⁻¹
same,A (PK macro-constant),[9],80469.811028
same,Alpha (PK macro-constant),[9],23.57
same,B (PK macro-constant),[9],3.797
same,Beta (PK macro-constant),[9],0.004217
same,K10 (constant rate of the elimination process),[10],17.25 day⁻¹
same,K12 (interchange constant rate),[10],0.5748 day⁻¹
same,K21 (interchange constant rate),[10],3.444 day⁻¹
same,A (PK macro-constant),[10],39912.523664
same,Alpha (PK macro-constant),[10],17.96
same,B (PK macro-constant),[10],374.8
same,Beta (PK macro-constant),[10],3.308
same,K10 (constant rate of the elimination process),[11],81.15 day⁻¹
same,K12 (interchange constant rate),[11],43.46 day⁻¹
same,K21 (interchange constant rate),[11],34.72 day⁻¹
same,A (PK macro-constant),[11],93311.275568
same,Alpha (PK macro-constant),[11],139.1
same,B (PK macro-constant),[11],12929.572382
same,Beta (PK macro-constant),[11],20.26
same,K10 (constant rate of the elimination process),[12],18.81 day⁻¹
same,K12 (interchange constant rate),[12],1.318 day⁻¹
same,K21 (interchange constant rate),[12],0.03721 day⁻¹
same,A (PK macro-constant),[12],21408.348297
same,Alpha (PK macro-constant),[12],20.13
same,B (PK macro-constant),[12],2.6
same,Beta (PK macro-constant),[12],0.03477
same,K10 (constant rate of the elimination process),[13],30.07 day⁻¹
same,K12 (interchange constant rate),[13],35.07 day⁻¹
same,K21 (interchange constant rate),[13],21.07 day⁻¹
same,A (PK macro-constant),[13],139526.742848
same,Alpha (PK macro-constant),[13],78.1
same,B (PK macro-constant),[13],31692.453321
same,Beta (PK macro-constant),[13],8.112
same,K10 (constant rate of the elimination process),[14],17.11 day⁻¹
same,K12 (interchange constant rate),[14],0.1688 day⁻¹
same,K21 (interchange constant rate),[14],0.1062 day⁻¹
same,A (PK macro-constant),[14],79738.401451
same,Alpha (PK macro-constant),[14],17.28
same,B (PK macro-constant),[14],4.845
same,Beta (PK macro-constant),[14],0.1051
same,K10 (constant rate of the elimination process),[15],26.34 day⁻¹
same,K12 (interchange constant rate),[15],1.57 day⁻¹
same,K21 (interchange constant rate),[15],4.217 day⁻¹
same,A (PK macro-constant),[15],51349.893679
same,Alpha (PK macro-constant),[15],28.19
same,B (PK macro-constant),[15],591.6
same,Beta (PK macro-constant),[15],3.941
